Experiment [1] deals with T1, FsCDH (class III cellobiose dehydrogenase).
T1 construct: gene CDH; flavocytochrome with cytochrome and dehydrogenase domains; recombinant secreted in Komagataella phaffii, FPLC purified
Description: DCIP reduction, plate reader, Michaelis-Menten fit. Format: biochemical, Fusarium solani. As to conditions: 0.3 mM DCIP, 50 mM potassium phosphate pH 6.0. The source says: DCIP reduction, plate reader, Michaelis-Menten fit on FsCDH (class III cellobiose dehydrogenase)

Experiment [2] concerns the target T2, NcAA9C (NcLPMO9C) (Neurospora crassa, UniProt Q7SHI8).
T2 construct: gene gh61-3; recombinant secreted in Komagataella phaffii, FPLC purified; copper enzyme, C4-acting
T2 sequence (Q7SHI8 17-359): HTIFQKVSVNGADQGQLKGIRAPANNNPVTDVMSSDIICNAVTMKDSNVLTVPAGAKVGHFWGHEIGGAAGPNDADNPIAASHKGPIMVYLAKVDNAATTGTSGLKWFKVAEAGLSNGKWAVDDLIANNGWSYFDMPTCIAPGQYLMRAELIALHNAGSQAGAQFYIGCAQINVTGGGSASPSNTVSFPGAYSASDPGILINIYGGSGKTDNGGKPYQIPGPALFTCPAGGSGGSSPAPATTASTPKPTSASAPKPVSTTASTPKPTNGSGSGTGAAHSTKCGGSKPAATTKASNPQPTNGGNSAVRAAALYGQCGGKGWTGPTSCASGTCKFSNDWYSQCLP
Description: batch conversion, RDE H2O2 consumption, HPAEC-PAD and MALDI-TOF-MS of products. Format: biochemical. The following applies: H2O2 cosubstrate, 5 mM ascorbic acid, 30 mM sodium acetate pH 5.0, 100 mM KCl.

As usually defined, the Km is the substrate concentration at which the rate is half of its maximum. With `OC[C@H]1OC(O)[C@H](O)[C@@H](O)[C@@H]1O[C@@H]1O[C@H](CO)C(O)(O)[C@H](O)[C@H]1O` (stereo partly shown) [Glc4gemGlc], the Km in experiment [1] (sample not treated with β-glucosidase, 1 to 100 μM) stood at 30.6 ± 8.3 µM.
As for `OC[C@H]1O[C@@H](O[C@H]2[C@H](O)[C@@H](O)C(O)O[C@@H]2CO)[C@H](O)[C@@H](O)[C@@H]1O` (stereo partly shown) [cellobiose], the Km in experiment [1] turned out to be 21.4 ± 3 µM.
Regarding `OC[C@H]1O[C@@H](O[C@H]2[C@H](O)[C@@H](O)[C@H](O[C@H]3[C@H](O)[C@@H](O)[C@H](O[C@H]4[C@H](O)[C@@H](O)[C@H](O[C@H]5[C@H](O)[C@@H](O)C(O)O[C@@H]5CO)O[C@@H]4CO)O[C@@H]3CO)O[C@@H]2CO)[C@H](O)[C@@H](O)[C@@H]1O` (stereo partly shown) [cellopentaose], the “batch conversion, RDE H2O2 consumption, HPAEC-PAD and MALDI-TOF-MS of products” value in experiment [2] was “a batch reaction employing NcAA9C, H2O2 as cosubstrate”.
With `OC[C@H]1O[C@@H](O[C@H]2[C@H](O)[C@@H](O)[C@H](O[C@H]3[C@H](O)[C@@H](O)C(O)O[C@@H]3CO)O[C@@H]2CO)[C@H](O)[C@@H](O)[C@@H]1O` (stereo partly shown) [cellotriose], the Km in experiment [1] amounted to 16.1 ± 2.9 µM.

Source of the values: article PMC12485664, “Interaction of class III cellobiose dehydrogenase with lytic polysaccharide monooxygenase” (FEBS Open Bio, 2025).
